According to patent US5770591A, “Bis-platinum complexes as chemotherapeutic agents” (The University of Vermont and State Agricultural College, priority 1994, dated 1998):
Where two headings read alike, the source gives them in different places.

What was measured:
[1] = test system: L-1210/DDP murine leukemia cells; assay: In vitro cytotoxic activity (ID50), L-1210/DDP (resistant to cisplatin); assay type: cell-based; conditions: Table II; solvent H2O, 10% DMSO or DMF per complex
[2] = test system: L-1210/dach murine leukemia cells; assay: In vitro cytotoxic activity (ID50), L-1210/dach; assay type: cell-based; conditions: Table II; solvent H2O, 10% DMSO or DMF per complex
Experimental: The tests were carried out in vitro according to the procedures outlined by M. P. Hacker et al in Cancer Research, 1985, 45, 4748.

[3] = test system: L-1210/0 murine leukemia cells; assay: In vitro cytotoxic activity (ID50, 50% inhibition of cell growth), L-1210/0; assay type: cell-based; conditions: Table II; solvent H2O, 10% DMSO or DMF per complex
[4] = treatment of patients; cited from earlier work
tumors = conditions: cited from earlier work
[5] = test system: L-1210 murine leukemia cell lines
Experimental: The biological assays were performed as previously described by method of Hacker et al. Cancer Research, 1985, 45, 4748. Complexes were all dissolved in 10% DMSO.

[6] = test system: L-1210/DDP murine leukemia cells; assay: In vitro cytotoxic activity (ID50), L-1210/DDP (resistant to cisplatin); assay type: cell-based; conditions: Table III; dissolved in 10% DMSO
Source text: (§1) where py=pyridine; quin=quinoline; isoquin=isoquinoline; Meim=methylimidazole. […] Complexes were all dissolved in 10% DMSO.

[7] = test system: L-1210/0 murine leukemia cells; assay: In vitro cytotoxic activity (ID50, 50% inhibition of cell growth), L-1210/0; assay type: cell-based; conditions: Table III; dissolved in 10% DMSO; read-out: ID50 L-1210/O
Source text: as §1

DNA = conditions: background, cited from earlier work

Compound | IC50 [1] [nM] | IC50 [2] [nM] | IC50 [3] [nM] | IC50 [6] [nM] | IC50 [7] [nM] | other results
N.N.NCCCCN.[Cl][Pt][Cl].[Cl][Pt][Cl] [BisPt4, [{cis-PtCl2 (NH3)}2 (H2 N(CH2)4 NH2)]] | 2190 | 336 | 280 |  |  | 
N.N.NCCCCN.O=C1CC(=O)[O][Pt][O]1.O=C1CC(=O)[O][Pt][O]1 [BisPtmal, [{cis-Pt(mal)(NH3)}2 (H2 N(CH2)4 NH2)]] | 5030 | 2550 | 930 |  |  | 
N.N.O=C([O-])C1(C(=O)[O-])CCC1.[Pt+2] [Carboplatin, [Pt(NH3)2 (CBDCA)]] |  |  |  |  |  | Nephrotoxicity [4]: marked reduction in the nephrotoxic effects; Antitumor activity / cytotoxic effect (tumors; background): effective against the same spectrum of carcinomas as cisplatin
N.N.N.N.NCCCCN.[Cl-].[Cl-].[Cl][Pt+].[Cl][Pt+] [Example 1, [{trans-PtCl(NH3)2}2 H2 N(CH2)4 NH2]Cl2] | 900 | 5400 | 3400 |  |  | Cytotoxic activity (in words) [5]: highly active cytotoxic agents
N.N.NCCCCN.[Cl][Pt][Cl].[Cl][Pt][Cl] [Example 3, [{cis-PtCl2 (NH3)}H2 N(CH2)4 NH2 {trans-PtCl2 (NH3)}]] | 3360 | 2600 | 760 |  |  | 
N.N.[Cl][Pt][Cl] [NH3 NH3 cis, cis-[PtCl2 (NH3)2]] |  |  |  | 8000 | 200 | 
N.N.[Cl][Pt+2][Cl] [NH3 NH3 trans, trans-[PtCl2 (NH3)2]] |  |  |  | > 50000 | > 20000 | Formation of 1,2-intrastrand crosslink (DNA): cannot form the 1,2-intrastrand crosslink; DNA binding (DNA; listed as trans-DDP): do bind to DNA; DNA binding (DNA; listed as trans-[Pt(NH3)2 Cl2 ]): bind avidly to the DNA molecule; Antitumor activity / cytotoxic effect (tumors; background, listed as trans-DDP): do not exhibit antitumor activity; Antitumor activity / cytotoxic effect (tumors; background, listed as trans-[Pt(NH3)2 Cl2 ]): no cytotoxic effect
N.N.N.[Cl][Pt+] [[Pt(NH3)3 Cl]^+] |  |  |  |  |  | DNA binding (DNA): bind avidly to the DNA molecule; Formation of 1,2-intrastrand crosslink (DNA): cannot form the 1,2-intrastrand crosslink; DNA binding (DNA; listed as [(Pt(NH3)3 Cl]^+)): do bind to DNA; Antitumor activity / cytotoxic effect (tumors; background): no cytotoxic effect; Antitumor activity / cytotoxic effect (tumors; background, listed as [(Pt(NH3)3 Cl]^+)): do not exhibit antitumor activity
Cl.Cl.[Pt].c1ccncc1.c1ccncc1 [py py cis] |  |  |  | 12500 | 8960 | 
[Cl][Pt][Cl].c1ccncc1.c1ccncc1 [py py trans, trans-[PtCl2 (pyridine)2]] |  |  |  | 800 | 610 | Cytotoxic activity (in words) [5]: as cytotoxic as cisplatin; Cross-resistance with the parent cisplatin ([5]; Table III in vitro data): non-cross-resistant with the parent cisplatin
[Pt(dien)Cl]Cl | > 20000 | > 20000 | > 20000 |  |  | Cytotoxic activity (in words) [5]: totally inactive; DNA binding (DNA): do bind to DNA; Antitumor activity / cytotoxic effect (tumors): do not exhibit antitumor activity
[PtCl2 (iso-quinoline)(DMSO)] [iso-quin DMSO trans] |  |  |  | 1170 | 2750 | 
[PtCl2 (quinoline)(DMSO)] [quin DMSO trans] |  |  |  | 1570 | 400 | 
trans-[PtCl2 (pyridine)(DMSO)] [py DMSO trans] |  |  |  | 5670 | 6620 | 
